Read-outs that look alike come from different tables or passages of the source.

For series [1] the following is noted: reference values; pH upon measurement: rebamipide pH 7.0, telmisartan pH 7.4, cilostazol pH 7.0, aprepitant pH 7, cabozantinib pH 7.4; cited from earlier work.
A short description of series [2]: Basic solubility at 25° C. in ethanol, PEG 400, propylene glycol (PG) and buffer solution; solubility ratio non-aqueous solvent / buffer solution. As to conditions: for Solubility ratio of solvent with respect to buffer solution Ethanol/buffer solution / Solubility ratio of solvent with respect to buffer solution PEG400/buffer solution / Solubility ratio of solvent with respect to buffer solution PG/buffer solution: buffer pH 7.0 (pH 7.4 for cabozantinib and telmisartan; pH 6.0 for rebamipide). As for the experimental part:
In this regard, the buffer solution had the following composition: • 0.2% sodium hydrogen phosphate hydrate • 0.3% sodium dihydrogen phosphate hydrate • sodium hydroxide and hydrochloric acid (suitable amount was added to adjust the pH to 7.0; however, pH was adjusted to 7.4 for cabozantinib and telmisartan).
However, the following composition was used for rebamipide instead: • 0.05% sodium hydrogen phosphate hydrate • 0.45% sodium dihydrogen phosphate hydrate • sodium hydroxide and hydrochloric acid (suitable amount was added to adjust the pH to 6.0).
Each compound was measured in the same manner described above. In the Table, the molecular weight and Log P values are reference values (or values calculated from reference values).

The procedure of series [3]:
Fujifilm Wako Pure Chemical
The poorly soluble compound content in the recovered filtrate was measured by liquid chromatography specified below (Shimadzu (Kyoto), high performance liquid chromatograph Prominence).
As the standard product of triamcinolone acetonide, a reagent from the Pharmaceutical and Medical Device Regulatory Science Society of Japan (Japan) was used. • 50 μL of sample solution and standard solution was measured by liquid chromatography under the following conditions.
Column temperature: constant temperature of about 40° C. Mobile phase A: 0.1% trifluoroacetic acid/10% acetonitrile solution Mobile phase B: 0.1% trifluoroacetic acid/90% acetonitrile solution Delivery of mobile phase: the ratio of mixture of mobile phase A and mobile phase B was changed as follows to control the linear concentration gradient.
Detergent: 50% acetonitrile solution Flow rate: 1.0 mL/min Temperature within autosampler: 5° C.
The following conditions were tested as additives to a poorly soluble compound
wherein SA+B=solubility of a poorly soluble compound in a composition comprising poloxamer 407 and PEG 4000 SB=solubility of a poorly soluble compound in a composition comprising PEG 4000, but not poloxamer 407 SA=solubility of a poorly soluble compound in a composition comprising poloxamer 407, but not PEG 4000 S0=solubility of a poorly soluble compound in a composition that comprises neither poloxamer 407 nor PEG 4000.
The solubility in a composition of PEG and poloxamer was measured in the same manner described above for additional compounds.
For cabozantinib and telmisartan, the pH of the aqueous solution with the base composition described above was changed to 7.4. For rebamipide, the aqueous solution with the base composition was as follow. • 0.05% sodium hydrogen phosphate hydrate • 0.45% sodium dihydrogen phosphate hydrate • sodium hydroxide and hydrochloric acid (suitable amount was added to adjust the pH to 6.0)
Additional compounds were measured in the same manner described above.
Cabozantinib and telmisartan were tested with a solution adjusted to a pH of 7.4. Rebamipide was tested with a solution adjusted to a pH of 6.0. Other compounds were tested with a solution adjusted to a pH of 7.0.

The format of series [4] is physicochemical. The method, then:
The solubility of a poorly soluble compound was measured by further adding a water-soluble macromolecule.
DKS Co. Ltd. • SBE-β-CD . . . MedChemExpress LLC • HP-β-CD . . . Fujifilm Wako Pure Chemical

With `C[C@@H](O[C@H]1OCCN(Cc2n[nH]c(=O)[nH]2)[C@H]1c1ccc(F)cc1)c1cc(C(F)(F)F)cc(C(F)(F)F)c1` [Aprepitant], in series [1], the Log P (in general, the decadic logarithm of the partition coefficient of the neutral form, usually between octanol and water) is recorded as 4.8 ± 0.1. In addition, the “Solubility, Ethanol” value in series [2] is recorded as 2.483%. Besides, in series [2] (25° C.), the “Solubility ratio of solvent with respect to buffer solution Ethanol/buffer solution” value is listed as 129308.39, the “Solubility ratio of solvent with respect to buffer solution PEG400/buffer solution” value is 60601.21 and the “Solubility ratio of solvent with respect to buffer solution PG/buffer solution” value is recorded as 43995.44. Also, in series [3], the “Solubility scale factor at 5° C. 30% PEG 4000/10% poloxamer 407” value is given as 1377.77 and the “Solubility scale factor at 15° C. 30% PEG 4000/10% poloxamer 407” value stood at 236.00.

For the compound `COc1cc2nccc(Oc3ccc(NC(=O)C4(C(=O)Nc5ccc(F)cc5)CC4)cc3)c2cc1OC` [Cabozantinib], the log partition coefficient (Log P) in series [1] was 3.92. Also, in series [2] (25° C.), the “Solubility ratio of solvent with respect to buffer solution Ethanol/buffer solution” value turned out to be 1949439.39, the “Solubility ratio of solvent with respect to buffer solution PEG400/buffer solution” value is 25935652.78 and the “Solubility ratio of solvent with respect to buffer solution PG/buffer solution” value came out at 1213400.25. Further, in series [3], the “Solubility scale factor at 5° C. 30% PEG 4000/10% poloxamer 407” value amounted to 288.38 and the “Solubility scale factor at 15° C. 30% PEG 4000/10% poloxamer 407” value was found to be 74.57.

Turning to `O=C1CCc2cc(OCCCCc3nnnn3C3CCCCC3)ccc2N1` [Cilostazol], in series [1], the “Log P” value is reported as 2.76. In addition, in series [2] (25° C.), the “Solubility, PEG400” value came to 0.4342%; the “Solubility ratio of solvent with respect to buffer solution Ethanol/buffer solution” value amounted to 761.36; the “Solubility ratio of solvent with respect to buffer solution PEG400/buffer solution” value was 1146.93; the “Solubility ratio of solvent with respect to buffer solution PG/buffer solution” value was determined as 761.23. In series [3], the “Solubility scale factor at 5° C. 30% PEG 4000/10% poloxamer 407” value turned out to be 8.97 and the “Solubility scale factor at 15° C. 30% PEG 4000/10% poloxamer 407” value is recorded as 10.22.

Consider `O=C1Nc2ccc(Cl)cc2[C@@](C#CC2CC2)(C(F)(F)F)O1` [Efavirenz], for which the “Log P” value in series [1] is reported as 5.40. The “Solubility, PG (propylene glycol)” value in series [2] (25° C.) is on record as 48.3%. In series [2] (25° C., phosphate buffer pH 7.0), the “Solubility, Buffer solution” value is 0.0007278%. Further, in series [3], the “state of the test composition” value was “converted into gel”.

On to `CC1(C)O[C@@H]2C[C@H]3[C@@H]4C[C@H](F)C5=CC(=O)C=C[C@]5(C)[C@@]4(F)[C@@H](O)C[C@]3(C)[C@]2(C(=O)CO)O1` [Fluocinolone acetonide], for which the lipophilicity (Log P) in series [1] is 2.48. Also, in series [2] (25° C.), the “Solubility, Ethanol” value was 4.635%; the “Solubility, PG (propylene glycol)” value stood at 3.224%; the “Solubility ratio of solvent with respect to buffer solution Ethanol/buffer solution” value is reported as 2685.78; the “Solubility ratio of solvent with respect to buffer solution PEG400/buffer solution” value is 1803.78. In series [2] (25° C.), the “Solubility ratio of solvent with respect to buffer solution PG/buffer solution” value was 2007.24. Moreover, in series [3], the “Solubility scale factor at 5° C. 30% PEG 4000/10% poloxamer 407” value is 19.75 and the “Solubility scale factor at 15° C. 30% PEG 4000/10% poloxamer 407” value stood at 18.27.

For the compound `O=C(NC(Cc1cc(=O)[nH]c2ccccc12)C(=O)O)c1ccc(Cl)cc1` (stereo not shown) [Rebamipide], the lipophilicity (Log P) in series [1] was −0.22. In series [2] (25° C.), the “Solubility, Ethanol” value is given as 0.06615%; the “Solubility ratio of solvent with respect to buffer solution Ethanol/buffer solution” value was 2.67; the “Solubility ratio of solvent with respect to buffer solution PEG400/buffer solution” value is 5.41; the “Solubility ratio of solvent with respect to buffer solution PG/buffer solution” value is reported as 4.88. For the same compound, the “Solubility, Buffer solution” value in series [2] (25° C., phosphate buffer adjusted to pH 6.0 (rebamipide)) came to 0.02473%. Besides, in series [3], the “Solubility scale factor at 5° C. 30% PEG 4000/10% poloxamer 407” value came to 1.13, the “Solubility scale factor at 15° C. 30% PEG 4000/10% poloxamer 407” value was determined as 1.07 and the “solubilization of compound due to poloxamer 407 by an addition of PEG 4000” value is on record as “lowest”.

Regarding `CCCc1nc2c(C)cc(-c3nc4ccccc4n3C)cc2n1Cc1ccc(-c2ccccc2C(=O)O)cc1` [Telmisartan], the “Log P” value in series [1] is 3.2. Moreover, in series [2] (25° C.), the “Solubility ratio of solvent with respect to buffer solution Ethanol/buffer solution” value was found to be 287.77, the “Solubility ratio of solvent with respect to buffer solution PEG400/buffer solution” value is 431.18 and the “Solubility ratio of solvent with respect to buffer solution PG/buffer solution” value was 120.32. In addition, in series [3], the “Solubility scale factor at 5° C. 30% PEG 4000/10% poloxamer 407” value is given as 2.03 and the “Solubility scale factor at 15° C. 30% PEG 4000/10% poloxamer 407” value is listed as 1.71.

carboxymethyl cellulose [CMC]: in series [4], the “effect of the addition on solubility of celecoxib in PEG/poloxamer composition” value (“effect … in PEG/poloxamer composition” below) is on record as “improved solubility overall”; the “effect on dissolution of a poorly soluble compound due to poloxamer 407 and PEG 4000” value was “tendency to further assist dissolution”.

In the case of hydroxypropyl-β-cyclodextrin [HP-β-CD], the “effect … in PEG/poloxamer composition” value in series [4] is “hardly improved the solubility”.

As for “sulfobutylether-β-cyclodextrin [SBE-β-CD]”, in series [4], the “effect … in PEG/poloxamer composition” value is listed as “improved solubility overall”; the “effect on dissolution of a poorly soluble compound due to poloxamer 407 and PEG 4000” value is recorded as “further improved the dissolution”.

(Values after patent US20230102590A1, “USE OF POLYETHER COMPOUND” (Senju Pharmaceutical Co., Ltd., priority 2020, published 2023).)
